Measurements published in patent US10759791B2, “Mammalian and bacterial nitric oxide synthase inhibitors” (Northwestern University, priority 2014, dated 2020).

Key:
rat nNOS [1] = target: T1, rat nNOS (Rattus norvegicus (Rat), UniProt P29476); assay: Hemoglobin capture assay, Ki (Tables 11-12); conditions: ratio of Ki values
rat nNOS [2] = target: T1, rat nNOS; assay: Oxyhemoglobin NO assay, Ki (Table 9); type: biochemical; conditions: for e/n: ratio Ki eNOS to Ki rat nNOS; for i/n: ratio Ki iNOS to Ki rat nNOS
rat nNOS [3] = target: T1, rat nNOS; assay: Hemoglobin capture assay, Ki (Example 159); type: biochemical
S. aureus UAMS1182 = assay: Effect of H2O2 and NOS inhibitors on S. aureus; type: cell-based, Staphylococcus aureus; conditions: for H2O2-mediated killing of S. aureus on co-treatment: 200 μM inhibitor + 5 mM H2O2; for S. aureus survival, inhibitor alone: 200 μM, WT and Δnos strains
bBiDomain = bBiDomain (Bacillus subtilis (strain 168), UniProt O34453); assay: bNOS activity inhibition with bBiDomain and YumC, nitrite by Griess reaction; conditions: for % nitrite: inhibitor 30 μM, NOHA 200 μM, 4 min, single time point
bBiDomain, sequence (O34453 other isoform, or with tags, fused parts or gaps): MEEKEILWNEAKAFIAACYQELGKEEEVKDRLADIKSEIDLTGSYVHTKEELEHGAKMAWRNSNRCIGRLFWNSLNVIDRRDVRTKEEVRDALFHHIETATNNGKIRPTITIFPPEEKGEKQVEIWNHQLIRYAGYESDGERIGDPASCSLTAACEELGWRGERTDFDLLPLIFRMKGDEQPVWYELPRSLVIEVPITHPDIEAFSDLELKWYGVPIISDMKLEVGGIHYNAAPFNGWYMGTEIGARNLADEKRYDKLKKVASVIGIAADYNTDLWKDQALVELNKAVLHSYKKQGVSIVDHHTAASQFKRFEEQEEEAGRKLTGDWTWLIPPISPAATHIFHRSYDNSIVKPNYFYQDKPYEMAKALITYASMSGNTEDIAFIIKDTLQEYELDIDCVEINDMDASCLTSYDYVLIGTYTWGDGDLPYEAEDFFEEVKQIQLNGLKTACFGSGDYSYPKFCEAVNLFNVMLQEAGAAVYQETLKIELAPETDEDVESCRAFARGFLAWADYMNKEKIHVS

[4] = Plasma pharmacokinetics and brain distribution in mice; conditions: for T1/2: i.v. 2 mg/kg
human nNOS = human nNOS (Homo sapiens (Human), UniProt P29475); assay: Oxyhemoglobin NO assay, Ki (Table 9); type: biochemical
B. subtilis = assay: Effect of oxidative stress (ACR, H2O2) and NOS inhibitors on B. subtilis survival and growth; type: cell-based, Bacillus subtilis

| Compound | e/n (rat nNOS [2]) | i/n (rat nNOS [2]) | Ki (human nNOS) | also measured |
| --- | --- | --- | --- | --- |
| Cc1ccnc(CCc2cccc([C@H](N)Cc3cc(C)cc(N)n3)c2)c1 [Compound 5R, (R)-6-(2-Amino-2-(3-(2-(4-methylpyridin-2-yl)ethyl)phenyl)ethyl)-4-methylpyridin-2-amine] | – | – | – | e/n (rat nNOS [1]): 240; i/n (rat nNOS [1]): >22 |
| Cc1ccnc(CCc2cccc([C@@H](N)Cc3cc(C)cc(N)n3)c2)c1 [Compound 5S, (S)-6-(2-Amino-2-(3-(2-(4-methylpyridin-2-yl)ethyl)phenyl)ethyl)-4-methylpyridin-2-amine] | – | – | – | e/n (rat nNOS [1]): 363; i/n (rat nNOS [1]): >110 |
| CNCCN(C)c1cccc(CCc2cc(C)cc(N)n2)c1 [Compound 10a, N^1-(3-(2-(6-Amino-4-methylpyridin-2-yl)ethyl)phenyl)-N^1,N^2-dimethylethane-1,2-diamine] | 156 | 41 | – | – |
| Cc1cc(N)nc(CCc2cccc(NCCN(C)C)c2)c1 [Compound 10b, N^1-(3-(2-(6-Amino-4-methylpyridin-2-yl)ethyl)phenyl)-N^2,N^2-dimethylethane-1,2-diamine] | 125 | 29 | – | – |
| Cc1cc(N)nc(CCc2cccc(N(C)CCN)c2)c1 [Compound 10c, N^1-(3-(2-(6-Amino-4-methylpyridin-2-yl)ethyl)phenyl)-N^1-methylethane-1,2-diamine] | 172 | 47 | – | – |
| Cc1cc(N)nc(CCc2cccc(N(C)CCCN)c2)c1 [Compound 10d, N^1-(3-(2-(6-Amino-4-methylpyridin-2-yl)ethyl)phenyl)-N-methylpropane-1,3-diamine] | 25 | 11 | – | – |
| COCCCNc1cncc(CCc2cc(C)cc(N)n2)c1 [Compound 14e, 6-(2-(5-(3-Methoxypropylamino)pyridin-3-yl)ethyl)-4-methylpyridin-2-amine] | – | – | – | Ki (rat nNOS [3]): 558 nM; Selectivity n/i (rat nNOS [3]; rat nNOS vs murine iNOS): 13 |
| Nc1ccc2ccc(CCNCCCc3cccc(F)c3)cc2n1 [Compound 19, reference compound] | – | – | – | H2O2-mediated killing of S. aureus on co-treatment (S. aureus UAMS1182): significantly increases the H2O2-mediated killing; S. aureus survival, inhibitor alone (S. aureus UAMS1182): reduced bacterial survival over time; Ki (bBiDomain): 69.7 nM; % nitrite (bBiDomain): 6.1% |
| CNCCN(C)c1cc(CCc2cc(C)cc(N)n2)cc(C(F)(F)F)c1 [Compound 19a, N^1-(3-(2-(6-Amino-4-methylpyridin-2-yl)ethyl)-5-(trifluoromethyl)phenyl)-N^1,N^2-dimethylethane-1,2-diamine] | 238 | 122 | – | – |
| CNCCN(C)c1cc(C#N)cc(CCc2cc(C)cc(N)n2)c1 [Compound 19c, 3-(2-(6-Amino-4-methylpyridin-2-yl)ethyl)-5-(methyl(2-(methylamino)ethyl)amino)benzonitrile] | – | – | – | T1/2 ([4]; brain): 24.80 h; T1/2 ([4]; plasma): 1.1 h; AUCinf ([4]; p.o. 10 mg/kg, plasma): 182.46 ng·h/mL |
| CCNCCN(C)c1cc(C#N)cc(CCc2cc(C)cc(N)n2)c1 [Compound 21a] | 583.7 | 178.0 | 225 nM | – |
| Cc1cc(N)nc(CCc2cc(C#N)cc(N(C)CCNC(C)C)c2)c1 [Compound 21b] | 320.1 | 361.5 | 357 nM | – |
| Cc1cc(N)nc(CCc2cc(C#N)cc(N(C)CCNC3CC3)c2)c1 [Compound 21c] | 274.0 | 246.6 | 378 nM | – |
| Cc1cc(N)nc(CCc2cc(C#N)cc(N(C)CCc3cccc(F)c3)c2)c1 [Compound 21d] | – | 33.7 | – | – |
| Cc1cc(N)nc(CCc2cc(F)cc(NCCN(C)C)c2)c1 [Compound 23a, N^1-(3-(2-(6-Amino-4-methylpyridin-2-yl)ethyl)-5-fluorophenyl)-N^2,N^2-dimethylethane-1,2-diamine] | 136.9 | 47.3 | 758 nM | – |
| CCNCCN(C)c1cc(F)cc(CCc2cc(C)cc(N)n2)c1 [Compound 23b, N^1-(3-(2-(6-Amino-4-methylpyridin-2-yl)ethyl)-5-fluorophenyl)-N^2-ethyl-N^1-methylethane-1,2-diamine] | 558.4 | 199.4 | 194 nM | – |
| Cc1cc(N)nc(CCc2cc(F)cc(N(C)CCNC3CC3)c2)c1 [Compound 23c, N^1-(3-(2-(6-Amino-4-methylpyridin-2-yl)ethyl)-5-fluorophenyl)-N^2-cyclopropyl-N^1-methylethane-1,2-diamine] | 124.3 | 217.8 | 243 nM | – |
| CCN(CCNC)c1cc(F)cc(CCc2cc(C)cc(N)n2)c1 [Compound 23d, N^1-(3-(2-(6-Amino-4-methylpyridin-2-yl)ethyl)-5-fluorophenyl)-N^1-ethyl-N^2-methylethane-1,2-diamine] | 93.2 | 109.6 | 139 nM | – |
| CNCCN(c1cc(F)cc(CCc2cc(C)cc(N)n2)c1)C1CC1 [Compound 23e, N^1-(3-(2-(6-amino-4-methylpyridin-2-yl)ethyl)-5-fluorophenyl)-N^1-cyclopropyl-N^2-methylethane-1,2-diamine] | 140.9 | 148.7 | 238 nM | – |
| Cc1cc(N)nc(CCc2cc(F)cc(NCc3cccc(Cl)c3)c2)c1 [Compound 23f, 6-(3-((3-Chlorobenzyl)amino)-5-fluorophenethyl)-4-methylpyridin-2-amine] | 262.0 | 354.1 | 2070 nM | – |
| Cc1cc(N)nc(CCc2cc(F)cc(NCc3cccnc3)c2)c1 [Compound 23g, 6-(3-Fluoro-5-((pyridin-3-ylmethyl)amino)phenethyl)-4-methylpyridin-2-amine] | 10.0 | 10.7 | 255 nM | – |
| Cc1cc(N)nc(CCc2cc(F)cc(N3CCNCC3)c2)c1 [Compound 23h, 6-(3-Fluoro-5-(piperazin-1-yl)phenethyl)-4-methylpyridin-2-amine] | 82.8 | 60.2 | 161 nM | – |
| Cc1cc(N)nc(CCc2cc(F)cc(NC3CCNCC3)c2)c1 [Compound 23i, 6-(3-Fluoro-5-(piperidin-4-ylamino)phenethyl)-4-methylpyridin-2-amine] | 40.2 | 110.9 | 384 nM | – |
| Cc1cc(N)nc(-c2ccc(CNCCc3cccc(F)c3)cc2)c1 [Compound 27, 6-(4-(((3-Fluorophenethyl)amino)methyl)phenyl)-4-methylpyridin-2-amine] | – | – | – | H2O2-mediated killing of S. aureus on co-treatment (S. aureus UAMS1182): significantly increases the H2O2-mediated killing; S. aureus survival, inhibitor alone (S. aureus UAMS1182): reduced bacterial survival over time; Ki (bBiDomain): 502 nM; % nitrite (bBiDomain): 13.2% |
| N=C(NCCC[C@H](N)C(=O)O)N[N+](=O)[O-] [L-NNA, N^ω-nitro-L-arginine] | – | – | – | % survival of wt B. subtilis with ACR (B. subtilis; NOS inhibitor + ACR, 30 min): bacterial % survival decreased in the presence of ACR; % survival of wt B. subtilis with H2O2 (B. subtilis; NOS inhibitor + H2O2, 30 min): trivial effects on bacterial survival; % nitrite (bBiDomain): 40.9±5.3% |
| CNC(=C[N+](=O)[O-])NCCSCc1ccc(CN(C)C)o1 [Ranitidine] | – | – | – | apparent permeability (Papp) mean A → B (Caco-2 cells; 10 μM, 2 h): 0.45 10^−6 cm s^−1; apparent permeability (Papp) mean B → A (Caco-2 cells; 10 μM, 2 h): 1.2 10^−6 cm s^−1; efflux ratio (Caco-2 cells; Papp (B→A)/Papp (A→B)): 2.7 |
| acriflavine | – | – | – | bacterial growth, % of control (B. subtilis; single agent, 500 μM NOS inhibitor or 800 μM ACR): 23% |
